Patent publication US9108944B2, “Androgen receptor modulators and uses thereof” (ARAGON PHARMACEUTICALS, INC., priority 2010, dated 2015)

Legend:
AR-VP16 [1] = biological target: T1, AR-VP16 (Homo sapiens, UniProt P10275); test: AR-VP16 DNA Binding Assay, antagonist mode (HepG2 cells, 0.1 nM R1881); type: cell-based
T1 sequence (P10275 560-920 limits assumed): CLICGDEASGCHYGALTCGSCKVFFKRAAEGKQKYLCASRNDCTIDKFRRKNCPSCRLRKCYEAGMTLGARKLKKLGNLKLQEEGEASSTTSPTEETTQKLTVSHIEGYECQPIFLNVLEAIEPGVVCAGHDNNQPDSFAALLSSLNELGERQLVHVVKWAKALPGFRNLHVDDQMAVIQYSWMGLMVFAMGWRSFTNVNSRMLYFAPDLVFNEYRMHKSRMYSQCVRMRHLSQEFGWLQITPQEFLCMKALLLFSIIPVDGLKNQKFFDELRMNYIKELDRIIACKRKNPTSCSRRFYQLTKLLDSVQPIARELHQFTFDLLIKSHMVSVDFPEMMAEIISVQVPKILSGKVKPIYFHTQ
Procedure, shortened: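 HepG2 cells transiently transfected with AR-VP16 (Lipofectin), incubated overnight, then treated with compound in RPMI with charcoal-stripped serum. Antagonist mode adds R1881 at 0.1 nM final. Cells lysed after 48 h incubation for read-out.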

AR-VP16 [2] = biological target: T1, AR-VP16; test: AR-VP16 DNA Binding Assay, agonist mode (HepG2 cells); type: cell-based; conditions: Emax >20x DMSO control = agonist

`N#Cc1ncc(N2C(=O)C3(CCC3)N(c3ccc(CCCO)cc3)C2=S)cc1C(F)(F)F` [Compound 86, 5-(5-(4-(3-hydroxypropyl)phenyl)-8-oxo-6-thioxo-5,7-diazaspiro[3.4]octan-7-yl)-3-(trifluoromethyl)picolinonitrile] was tested, and the IC50 (AR-VP16 [1]) was less than 1000 nM and the “ARVP16 DNA Binding Assay (Agonist mode): Agonist?” value (“ARVP16 DNA Binding Assay” below) (AR-VP16 [2]) was “No (Agonist defined as a compound whose Emax in the ARVP16 DNA Binding Assay (Agonist mode) is >20x DMSO control)”.

For `Cc1ccc(N2C(=S)N(c3ccc(C#N)c(C(F)(F)F)n3)C(=O)C23CCC3)cc1` [Compound 34, 6-(8-Oxo-6-thioxo-5-(p-tolyl)-5,7-diazaspiro[3.4]octan-7-yl)-2-(trifluoromethyl)nicotinonitrile], the IC50 (AR-VP16 [1]) was greater than 1000 nM and the “ARVP16 DNA Binding Assay” value (AR-VP16 [2]) was “No (Agonist defined as a compound whose Emax in the ARVP16 DNA Binding Assay (Agonist mode) is >20x DMSO control)”.

`N#Cc1ncc(N2C(=O)C3(CCC3)N(c3ccc(O)c(F)c3)C2=S)cc1C(F)(F)F` [Compound 1, 5-(5-(3-Fluoro-4-hydroxyphenyl)-8-oxo-6-thioxo-5,7-diazaspiro[3.4]octan-7-yl)-3-(trifluoromethyl)picolinonitrile] was tested, and the IC50 (AR-VP16 [1]) was less than 1000 nM and the “ARVP16 DNA Binding Assay” value (AR-VP16 [2]) was “No (Agonist defined as a compound whose Emax in the ARVP16 DNA Binding Assay (Agonist mode) is >20x DMSO control)”.

For `N#Cc1ncc(N2C(=O)C3(CCC3)N(c3ccc(F)c(OCc4ccccc4)c3)C2=S)cc1C(F)(F)F` [Compound 161, 5-(5-(3-(Benzyloxy)-4-fluorophenyl)-8-oxo-6-thioxo-5,7-diazaspiro[3.4]octan-7-yl)-3-(trifluoromethyl)picolinonitrile], the IC50 (AR-VP16 [1]) was greater than 1000 nM and the “ARVP16 DNA Binding Assay” value (AR-VP16 [2]) was “No (Agonist defined as a compound whose Emax in the ARVP16 DNA Binding Assay (Agonist mode) is >20x DMSO control)”.

With `Cc1cc(N2C(=O)C3(CCC3)N(c3ccc(OC4CCNCC4)cc3)C2=S)cnc1C#N` [Compound 210, 3-Methyl-5-(8-oxo-5-(4-(piperidin-4-yloxy)phenyl)-6-thioxo-5,7-diazaspiro[3.4]octan-7-yl)picolinonitrile] the IC50 (AR-VP16 [1]) was greater than 1000 nM and the “ARVP16 DNA Binding Assay” value (AR-VP16 [2]) was “No (Agonist defined as a compound whose Emax in the ARVP16 DNA Binding Assay (Agonist mode) is >20x DMSO control)”.

In the case of `N#Cc1ncc(N2C(=O)C3(CCC3)N(c3ccc(OCC(=O)O)c(F)c3)C2=S)cc1C(F)(F)F` [Compound 228, 2-(4-(7-(6-Cyano-5-(trifluoromethyl)pyridin-3-yl)-8-oxo-6-thioxo-5,7-diazaspiro[3.4]octan-5-yl)-2-fluorophenoxy)acetic acid], the IC50 (AR-VP16 [1]) is reported as greater than 1000 nM and the “ARVP16 DNA Binding Assay” value (AR-VP16 [2]) is reported as “No (Agonist defined as a compound whose Emax in the ARVP16 DNA Binding Assay (Agonist mode) is >20x DMSO control)”.

For `N#Cc1ncc(N2C(=O)C3(CCC3)N(c3ccc(F)c(C(=O)NCCc4ccncc4)c3)C2=S)cc1C(F)(F)F` [Compound 241, 5-(7-(6-Cyano-5-(trifluoromethyl)pyridin-3-yl)-8-oxo-6-thioxo-5,7-diazaspiro[3.4]octan-5-yl)-2-fluoro-N-(2-(pyridin-4-yl)ethyl)benzamide], the IC50 (AR-VP16 [1]) was greater than 1000 nM and the “ARVP16 DNA Binding Assay” value (AR-VP16 [2]) was “No (Agonist defined as a compound whose Emax in the ARVP16 DNA Binding Assay (Agonist mode) is >20x DMSO control)”.

With `Cc1cc(N2C(=S)N(c3cnc(C#N)c(C)c3)C(=O)C23CCC3)ccc1C(N)=O` [Compound 233, 4-(7-(6-Cyano-5-methylpyridin-3-yl)-8-oxo-6-thioxo-5,7-diazaspiro[3.4]octan-5-yl)-2-methylbenzamide] the IC50 (AR-VP16 [1]) was greater than 1000 nM and the “ARVP16 DNA Binding Assay” value (AR-VP16 [2]) was “No (Agonist defined as a compound whose Emax in the ARVP16 DNA Binding Assay (Agonist mode) is >20x DMSO control)”.

With `N#Cc1ncc(N2C(=O)C3(CCC3)N(c3ccc(Oc4cccnc4)cc3)C2=S)cc1C(F)(F)F` [Compound 39, 5-(8-Oxo-5-(4-(pyridin-3-yloxy)phenyl)-6-thioxo-5,7-diazaspiro[3.4]octan-7-yl)-3-(trifluoromethyl)picolinonitrile] the IC50 (AR-VP16 [1]) was less than 1000 nM and the “ARVP16 DNA Binding Assay” value (AR-VP16 [2]) was “Yes (Agonist defined as a compound whose Emax in the ARVP16 DNA Binding Assay (Agonist mode) is >20x DMSO control)”.

With `N#Cc1ncc(N2C(=O)C3(CCC3)N(c3ccc(S(N)(=O)=O)cc3)C2=S)cc1C(F)(F)F` [Compound 81, 4-(7-(6-cyano-5-(trifluoromethyl)pyridin-3-yl)-8-oxo-6-thioxo-5,7-diazaspiro-[3.4]octan-5-yl)benzenesulfonamide] the IC50 (AR-VP16 [1]) was greater than 1000 nM and the “ARVP16 DNA Binding Assay” value (AR-VP16 [2]) was “No (Agonist defined as a compound whose Emax in the ARVP16 DNA Binding Assay (Agonist mode) is >20x DMSO control)”.

With `Cc1ccc(CNC(=O)c2ccc(N3C(=S)N(c4cnc(C#N)c(C(F)(F)F)c4)C(=O)C34CCC4)cc2F)o1` [Compound 291, 4-(7-(6-Cyano-5-(trifluoromethyl)pyridin-3-yl)-8-oxo-6-thioxo-5,7-diazaspiro[3.4]octan-5-yl)-2-fluoro-N-((5-methylfuran-2-yl)methyl)benzamide] the IC50 (AR-VP16 [1]) was less than 1000 nM and the “ARVP16 DNA Binding Assay” value (AR-VP16 [2]) was “No (Agonist defined as a compound whose Emax in the ARVP16 DNA Binding Assay (Agonist mode) is >20x DMSO control)”.

For `Cc1ccc(N2C(=S)N(c3cnc(-c4cccnc4)c(C(F)(F)F)c3)C(=O)C23CCC3)cc1` [Compound 61, 6-Thioxo-5-(p-tolyl)-7-(3-(trifluoromethyl)-[2,3′-bipyridin]-5-yl)-5,7-diazaspiro[3.4]octan-8-one], the IC50 (AR-VP16 [1]) was greater than 1000 nM and the “ARVP16 DNA Binding Assay” value (AR-VP16 [2]) was “No (Agonist defined as a compound whose Emax in the ARVP16 DNA Binding Assay (Agonist mode) is >20x DMSO control)”.

With `CNC(=O)c1ccc(N2C(=S)N(c3cnc(C#N)c(C(F)F)c3)C(=O)C23CCC3)cc1F` [Compound 113, 4-(7-(6-Cyano-5-(difluoromethyl)pyridin-3-yl)-8-oxo-6-thioxo-5,7-diazaspiro[3.4]octan-5-yl)-2-fluoro-N-methylbenzamide] the IC50 (AR-VP16 [1]) was less than 1000 nM and the “ARVP16 DNA Binding Assay” value (AR-VP16 [2]) was “No (Agonist defined as a compound whose Emax in the ARVP16 DNA Binding Assay (Agonist mode) is >20x DMSO control)”.

For `Cc1cc(N2C(=O)C3(CCC3)N(c3ccc(-c4ccco4)cc3)C2=S)cnc1C#N` [Compound 116, 5-(5-(4-(Furan-2-yl)phenyl)-8-oxo-6-thioxo-5,7-diazaspiro[3.4]octan-7-yl)-3-methylpicolinonitrile], the IC50 (AR-VP16 [1]) was less than 1000 nM and the “ARVP16 DNA Binding Assay” value (AR-VP16 [2]) was “No (Agonist defined as a compound whose Emax in the ARVP16 DNA Binding Assay (Agonist mode) is >20x DMSO control)”.

For `N#Cc1ncc(N2C(=O)C3(CCC3)N(c3ccccc3CO)C2=S)cc1C(F)(F)F` [Compound 68, 5-(5-(2-(Hydroxymethyl)phenyl)-8-oxo-6-thioxo-5,7-diazaspiro[3.4]octan-7-yl)-3-(trifluoromethyl)picolinonitrile], the IC50 (AR-VP16 [1]) was greater than 1000 nM and the “ARVP16 DNA Binding Assay” value (AR-VP16 [2]) was “No (Agonist defined as a compound whose Emax in the ARVP16 DNA Binding Assay (Agonist mode) is >20x DMSO control)”.

In the case of `N#Cc1ncc(N2C(=O)C3(CCC3)N(c3ccc(C(=O)N4CCCC4)c(F)c3)C2=S)cc1C(F)(F)F` [Compound 270, 5-(5-(3-Fluoro-4-(pyrrolidine-1-carbonyl)phenyl)-8-oxo-6-thioxo-5,7-diazaspiro[3.4]octan-7-yl)-3-(trifluoromethyl)picolinonitrile], the IC50 (AR-VP16 [1]) is reported as greater than 1000 nM and the “ARVP16 DNA Binding Assay” value (AR-VP16 [2]) is reported as “No (Agonist defined as a compound whose Emax in the ARVP16 DNA Binding Assay (Agonist mode) is >20x DMSO control)”.
